# Experimental data as given in patent publication US20040063681A1, “Methods for using gold (III) complexes as anti-tumor and anti-HIV agents” (priority 2002, published 2004).
# Tests used:
# [1] = test system: Human Hepatocellular Carcinoma (HepG2); assay: MTT cytotoxicity, HepG2; format: cell-based; conditions: growth inhibition
# Source text: Human promyelocytic leukemia (HL-60), human hepatocellular carcinoma (HepG2), Human cervix epitheloid carcinoma cells (HeLa) and human oral epidermoid carcinoma cells (KB-3-1), were obtained from American Type Culture Collection (ATCC) (Rockville, Md.). The multi-drug-resistant variant KB-V1 cell line was obtained by stepwise selections for vinblastine resistance as described by Shen et al., J. Biol. Chem. 261:7762-7770 (1986)], and was generously provided by Dr Michael Gottesman (NIH, Bethesda, Md.). Human nasopharyngeal carcinoma cells (SUNE1 and its cisplatin resistance variant, CNE1) were derived from poorly differentiated NPC in Chinese patients as described by Gu et al., Chin. J. Cancer 2:270-272 (1983), and were generously provided by Dr S. W. Tsao (The University of Hong Kong, Hong Kong, PRC). Cell culture flasks and 96 well microtitre plates were from Nalge Nunc hit. Culture medium, other medium constituents and phosphate buffered saline (PBS) were obtained from Gibco BRL (Rockville, Md.). Cell Proliferation Kit I (MTT) was purchased from Roche (Mannheim, Germany).
# The anti-cancer activities of the gold(III) porphyrin complexes were evaluated toward some established human cancer cell lines: promyelocytic leukemia (HL-60), hepatocellular carcinoma (HepG2), cervix epitheloid carcinoma (HeLa), epidermoid carcinoma (KB-3-1) and its multi-drug resistant variant (KB-V1), nasopharyngeal carcinoma (SUNE1) and its cisplatin-resistant variant (CNE1). The experiments were carried out by following the MTT procedure (see Mosmann et al., J. Immunol. Methods 65:55-63 (1983). The IC50 values of the gold(III) porphyrin complexes together with that of cisplatin, and KAuCl4 are provided in Table 4a; and the IC50 values of the gold(III) Schiff-base and bis(pyridyl)carboxamide complexes are shown in Table 4b. The cytotoxicity profiles of some selected gold(III) porphyrin complexes toward SUNE1 and its cisplatin-resistant variant CNE1 are also shown in FIG. 7.
# calf thymus DNA = assay: UV-vis absorption titration with calf thymus DNA; format: binding
# Experimental: The calf thymus DNA was purchased from Sigma-Aldrich Chemical Co. and was purified by phenol-chloroform extraction. The DNA was dissolved in buffer (5 mM Tris, 5 mM NaCl, pH 7.2). The concentration (per base pair) of calf thymus DNA was determined spectrophotometrically on the basic of ε260, 13,200 M^−1cm^−1bp.
# Absorption Titration. The binding interaction of the gold(III) porphyrins to duplex DNA has been studied by UV-vis spectroscopy.
# where [ctDNA] is the concentration of DNA, Δεap═|εA−εB| in which εA=Aobs/[complex], and Δε=|εB−εF|. εB and εF correspond to the extinction coefficient of DNA-bound gold(III) porphyrin and the free gold(III) porphyrins, respectively.
# The effect of temperature on the intrinsic binding constants was investigated. Using the van't Hoff equation (2): […]
smiles,measurement,setting,value
C1=Cc2nc1c(-c1ccccc1)c1ccc([n-]1)c(-c1ccccc1)c1nc(c(-c3ccccc3)c3ccc([n-]3)c2-c2ccccc2)C=C1.[Au+3].[Cl-] [Complex 1a],IC50,[1],340 nM
same,hypochromicity,"calf thymus DNA; Tris buffer, 292.8 K",53.4%
same,hypochromicity,"calf thymus DNA; Tris buffer, 298.0 K",50.3%
same,intrinsic binding constant (Kb),"calf thymus DNA; Tris buffer, 298.0 K",2.14 × 10^6 dm^3mol^−1
same,hypochromicity,"calf thymus DNA; Tris buffer, 302.3 K",49.5%
same,intrinsic binding constant (Kb),"calf thymus DNA; Tris buffer, 302.3 K",1.98 × 10^6 dm^3mol^−1
same,hypochromicity,"calf thymus DNA; Tris buffer, 307.2 K",47.1%
same,intrinsic binding constant (Kb),"calf thymus DNA; Tris buffer, 307.2 K",1.55 × 10^6 dm^3mol^−1
same,hypochromicity,"calf thymus DNA; Tris buffer, 311.6 K",46.3%
same,intrinsic binding constant (Kb),"calf thymus DNA; Tris buffer, 311.6 K",1.35 × 10^6 dm^3mol^−1
same,hypochromicity,"calf thymus DNA; Tris buffer, 316.5 K",43.4%
same,intrinsic binding constant (Kb),"calf thymus DNA; Tris buffer, 316.5 K",0.94 × 10^6 dm^3mol^−1
same,hypochromicity,"calf thymus DNA; Tris buffer, 321.9 K",42.5%
same,intrinsic binding constant (Kb),"calf thymus DNA; Tris buffer, 321.9 K",0.82 × 10^6 dm^3mol^−1
same,ΔG° (298 K),"calf thymus DNA; binding to calf thymus DNA, van't Hoff analysis, 298 K",−8.7 ± 0.4
same,hypochromicity of the Soret band,"calf thymus DNA; calf thymus DNA (0-5 μM), Tris buffer",44%
same,hypochromicity of the Q-band at 520 nm,"calf thymus DNA; calf thymus DNA (0-5 μM), Tris buffer, 2% DMSO",40%
